Reference: BindingDB's records for doi:10.1021/jm2017144 (Universidad De Granada, 2012)

Biological target: Superoxide dismutase [Cu-Zn], SOD1 (Homo sapiens) (UniProt P00441)
Assay: Inhibition of human erythrocyte Cu-Zn SOD by NBT reduction assay

Chain of Superoxide dismutase [Cu-Zn], SOD1 (Homo sapiens) (P00441 whole entry, looked up): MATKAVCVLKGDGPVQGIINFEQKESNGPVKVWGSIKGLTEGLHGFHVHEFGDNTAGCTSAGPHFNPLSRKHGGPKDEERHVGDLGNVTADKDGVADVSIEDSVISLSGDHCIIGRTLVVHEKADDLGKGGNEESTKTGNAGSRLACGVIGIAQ

Compound | IC50 [µM]
c1c2n[nH]c1CNCCN1CCNCc3cc(n[nH]3)CNCCN(CCNC2)CCNCc2cc([nH]n2)CNCC1 | 274
Cn1nc2cc1CNCCNCCNCc1cc(n(C)n1)CNCCNCCNC2 | 96.6
c1ccc(Cn2nc3cc2CNCCNCCNCc2cc(n(Cc4ccccc4)n2)CNCCNCCNC3)cc1 | 155
CCCCCCCCN1CCNCc2cc([nH]n2)CNCCN(CCCCCCCC)CCNCc2cc(n[nH]2)CNCC1 | 89.2
